Experimental findings from patent EP1674466A1, “2,5- and 2,6-disubstituted benzazole analogues useful as protein kinase inhibitors” (4SC AG, priority 2004, dated 2006) are described below.

SMILES strings stand for the structures. A value given as a limit tells only on which side of the number the result lay.

This test has as its target at least one kinase selected from Aurora A, Aurora B, EGF-R, ERBB2, PDGFR, IGF1-R, VEGF-R2, VEGF-R3, EPHB4, Tie2, and SRC. Nature of the test: 33PanQinase Activity Assay (protein kinase assay). Format: biochemical. The settings on record: on at least one kinase of the listed panel, or on at least two kinases from at least two different molecular mechanisms of tumor progression; recombinant human kinases, 1 µM ATP. As to the method: The effect of the benzazole derivatives was tested on recombinant, human protein kinases. All protein kinases were expressed in Sf9 insect cells as human recombinant GST-fusion proteins or as His-tagged proteins by means of the baculovirus expression system. Protein kinases were purified by affinity chromatography using either GSH-agarose or Ni-NTH-agarose. The purity and identity of each was checked by SDS-PAGE/silver staining and by western blot analysis with specific antibodies. A proprietary protein kinase assay (^33PanQinase® Activity Assay) was used for measuring the kinase activity. All kinase assays were performed in 96-well FlashPlates™ in a 50 µl reaction volume. The assay for all enzymes contained 60 mM HEPES-NaOH, pH 7.5, 3 mM MgCl2, 3 mM MnCl2, 3 µM Na-orthovanadate, 1.2 mM DTT, 50 µg/ml PEG20000 and 1 µM [γ-^33P]-ATP (approx. 5x10^5 cpm per well). The reaction cocktails were incubated at 30°C for 80 minutes. The reaction was stopped with 50 µl of 2% (v/v) H3PO4, plates were aspirated and washed two times with 200 µl of 0.9% (w/v) NaCl. Incorporation of ^33Pi was determined with a microplate scintillation counter. All assays were performed with a BeckmanCoulter/ Sagian robotic system.
In general, IC50 refers to the concentration at which inhibition is half-maximal. Turning to `COc1cc2ncnc(Nc3ccc4nc(NC(=O)c5ccccc5)oc4c3)c2cc1OC` [Example 1, N-[6-(6,7-Dimethoxyquinazolin-4-ylamino)benzoxazol-2-yl]benzamide], the half-inhibitory concentration (IC50) is less than 500 nM.
Regarding `COc1cc2ncnc(Nc3ccc4nc(NC(=O)c5ccccc5)sc4c3)c2cc1OC` [Example 2, N-[6-(6,7-Dimethoxyquinazolin-4-ylamino)benzothiazol-2-yl]benzamide], the IC50 was less than 500 nM.
`COc1cc2c(Nc3ccc4nc(NC(=O)c5ccccc5)sc4c3)ncnc2cc1OCCCN1CCN(C)CC1` [Example 5, N-(6-{6-Methoxy-7-[3-(4-methylpiperazin-1-yl)propoxy]quinazolin-4-yl-amino}benzothiazol-2-yl)benzamide]: the IC50 was less than 500 nM.
With `Cc1cc(Nc2ccnc(Nc3ccc4nc(NC(=O)c5ccccc5)sc4c3)n2)n[nH]1` [Example 9, N-{6-[4-(5-Methylpyrazol-3-ylamino)pyrimidin-2-ylamino]benzothiazol-2-yl}benzamide], the IC50 was less than 500 nM.
With `O=C(Nc1nc2cc(Nc3ncnc4nc[nH]c34)ccc2s1)c1ccccc1` [Example 11, N-[5-(Purin-6-ylamino)benzothiazol-2-yl]benzamide], the IC50 was less than 500 nM.
